{"source": "patent US20230015532A1", "about": "“PHARMACEUTICAL COMPOSITION, FOR PREVENTING OR TREATING FIBROSIS, COMPRISING PHEOPHORBIDE COMPOUND AS ACTIVE INGREDIENT” (PAEAN BIOTECHNOLOGY INC., priority 2019, published 2023)", "key": {"[1]": {"test_system": "collagen 1A, fibronectin and alpha-smooth muscle actin proteins in CCD8-Lu cells", "assay": "Anti-fibrotic activity by Western blotting (Experimental Example 3.1)", "type": "cell-based, human", "conditions": "0.06-5 μM, 6 hours after TGF-β, 18 hours", "experimental": "A cell-based assay experiment was performed using Western blotting assay to analyze the anti-fibrotic activity of pheophorbide a.\nCCD8-Lu cells, which are human lung-derived fibroblasts, were cultured in the DMEM medium containing 10% FBS. Then, about 2×10^5 cells were inoculated into a 6 well plate and cultured for 24 hours, and subjected to the deficient condition in the DMEM medium from which FBS was removed for about 24 hours.\n24 hours later, following the treatment with TGF-β at a concentration of 5 ng/ml, fibrosis of cells was induced for 6 hours. After 6 hours, the cells were treated with pheophorbide a obtained in Preparation Example 2 and further cultured for 18 hours (FIG. 2). Then, the negative control group was treated with nothing, the positive control group was treated with TGF-β alone at a concentration of 5 ng/ml, and the experimental groups were treated with TGF-β at a concentration of […] and 6 hours later, with pheophorbide a at each concentration of 0.06 μM, 0.12 μM, 0.25 μM, 0.5 μM, 2.5 μM and 5 μM. […]\nThe separated supernatant was obtained and transferred to a new microtube and then the protein was quantified using a bicinchoninic acid assay (BCA assay) protein quantitative kit. […]"}, "[2]": {"test_system": "pulmonary fibrosis induced by bleomycin (BLM) in C57BL/6NCr10ri mice", "assay": "Bleomycin-induced pulmonary fibrosis model mice", "type": "in vivo", "conditions": "oral once daily Day 1 to Day 21, 1.25-80 mg/kg", "experimental": "Mice were weighed and divided into total seven groups, and then administered intratracheally with sterile physiological saline in the vehicle control group and with BLM in the other groups than the vehicle control group on Day 1 to induce pulmonary fibrosis. Then, from Day 1 to Day 21, DMSO (sigma D2650-5X) devoid of the effective substance was administered to the vehicle control group and the negative control group (fibrosis control).\nIn addition, T1 to T4 groups and the positive control group were orally administered with the effective substance (pheophorbide a) and nintedanib, respectively, once daily. […]\nFollowing the administration, the death and the moribund status were observed once daily, and general symptoms such as appearance and behavioral changes were observed twice daily. […] Body weight was measured 7 times in total (Day 1, 2, 4, 8, 11, 15 and 18) during the administration and once on the autopsy day.\nOn Day 22, the animals were euthanized by isoflurane inhalation and subjected to autopsy. […] The organ weight ratio of the extracted lungs was calculated by using the following calculation formula. […]\nThe results of the experiments were expressed by the mean and the standard deviation and statistically analyzed using Pristima System or Statistical Analysis System (SAS/STAT)."}, "[3]": {"test_system": "α-SMA, CTGF and NOX4 genes in CCD8-Lu cells", "assay": "Comparison of anti-fibrotic activity by quantitative real-time PCR (Experimental Example 4.1)", "type": "cell-based, human", "conditions": "2.5 μM and 5 μM; 6 hours after 5 ng/ml TGF-β, 18 hours; qRT-PCR", "experimental": "A cell-based analysis experiment was performed to analyze the anti-fibrotic activity of pheophorbide a obtained in Preparation Example 2 in comparison with nintedanib and pirfenidone, which were previously approved as a therapeutic agent for pulmonary fibrosis, using quantitative real-time polymerase chain reaction.\nCCD8-Lu cells, which are human lung-derived fibroblasts, were cultured in the DMEM medium containing 10% FBS. About 2×10^5 cells were then inoculated into a 6 well plate, cultured for 24 hours, and subjected to the deficient condition in the DMEM medium from which FBS was removed for about 24 hours.\n24 hours later, following the treatment with TGF-β at a concentration of 5 ng/ml, fibrosis of cells was induced for 6 hours. After 6 hours, the cells were treated with pheophorbide a obtained in Preparation Example 2 or the therapeutic agent for pulmonary fibrosis and further cultured for 18 hours. […]\nThe supernatant was separated, added with the same volume of isopropyl alcohol and centrifuged at 12,000×g for 10 minutes. […] After drying, about 50 μl of RNAase-free purified distilled water was added thereto, and the quantity and purity of the obtained RNA was measured using a spectrophotometer. […]\nAfter the cDNA synthesis reaction was completed, the reverse transcriptase was inactivated by heating at 72° C. for 5 minutes, and then RNase H was added to remove the […] RNA and obtain the final cDNA. Whether the expression of the alpha-smooth muscle actin gene, which is a characteristic gene of myofibroblasts, the CCN2 (or CTGF) gene, which is a characteristic gene for fibrosis, fibronectin, which is a characteristics gene for fibrosis, and the NOX4 (NADPH oxidase 4) gene known as a major regulator of the amount of reactive oxygen species was changed was observed through quantitative real-time polymerase chain reaction. The GAPDH gene was quantified together to correct differences in expression."}}}
{"substance": "pheophorbide a", "values": [{"measurement": "expression of collagen 1A, fibronectin, and smooth muscle actin proteins induced by TGF-β", "setting": "[1]", "result": "inhibited"}, {"measurement": "anti-fibrotic effect as compared with the negative control group", "setting": "[2]; BLM 1.8 mg/kg intratracheal, mice", "result": "anti-fibrotic effect"}, {"measurement": "anti-fibrotic effect as compared with the positive control group (nintedanib)", "setting": "[2]; nintedanib 60 mg/kg, BLM mice", "result": "significant anti-fibrotic effect"}, {"measurement": "expression of the α-SMA, CTGF and NOX4 genes induced by TGF-β", "setting": "[3]", "result": "remarkably inhibited"}]}
